Experimental data taken from PubChem BioAssay AID1963964 (Molecular Pharmacology Branch, DTP, NCI, 2024).

System: 997726-040-R-J2-PDC tumor spheroids, viability
Assay: Anticancer human tumor 997726-040-R-J2-PDC patient-derived squamous cell lung carcinoma cell line growth inhibition [PI3K]
Conditions: spheroids with HUVEC and MSC; for IC50: curve of first compound; for viability, T/C: stronger effect = lower value
Method in brief: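 Tumor cells were combined with HUVEC and MSCs into spheroids, then dosed with PI3K-inhibitor combinations over half-log ranges capped near clinical Cmax or 10 microM.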

[1] = second compound 0.00316 µM, first compound 0.0316 µM
[2] = second compound 0.00316 µM, first compound 0.1 µM
[3] = second compound 0.00316 µM, first compound 0.316 µM
[4] = second compound 0.00316 µM, first compound 1 µM
[5] = second compound 0.00316 µM, first compound 3.16 µM
[6] = second compound 0.00316 µM, first compound 10 µM
[7] = second compound 0.01 µM, first compound 0.0316 µM
[8] = second compound 0.01 µM, first compound 0.1 µM
[9] = second compound 0.01 µM, first compound 0.316 µM
[10] = second compound 0.01 µM, first compound 1 µM
[11] = second compound 0.01 µM, first compound 3.16 µM
[12] = second compound 0.01 µM, first compound 10 µM
[13] = second compound 0.0316 µM, first compound 0.0316 µM
[14] = second compound 0.0316 µM, first compound 0.1 µM
[15] = second compound 0.0316 µM, first compound 0.316 µM
[16] = second compound 0.0316 µM, first compound 1 µM
[17] = second compound 0.0316 µM, first compound 3.16 µM
[18] = second compound 0.0316 µM, first compound 10 µM
[19] = second compound 0.1 µM, first compound 0.0316 µM
[20] = second compound 0.1 µM, first compound 0.1 µM
[21] = second compound 0.1 µM, first compound 0.316 µM
[22] = second compound 0.1 µM, first compound 1 µM
[23] = second compound 0.1 µM, first compound 3.16 µM
[24] = second compound 0.1 µM, first compound 10 µM
[25] = second compound 0.316 µM, first compound 0.0316 µM
[26] = second compound 0.316 µM, first compound 0.1 µM
[27] = second compound 0.316 µM, first compound 0.316 µM
[28] = second compound 0.316 µM, first compound 1 µM
[29] = second compound 0.316 µM, first compound 3.16 µM
[30] = second compound 0.316 µM, first compound 10 µM
[31] = second compound 1 µM, first compound 0.0316 µM
[32] = second compound 1 µM, first compound 0.1 µM
[33] = second compound 1 µM, first compound 0.316 µM
[34] = second compound 1 µM, first compound 1 µM
[35] = second compound 1 µM, first compound 3.16 µM
[36] = second compound 1 µM, first compound 10 µM
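Also: spheroids exposed to compounds for seven days before readout.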

For `C=CC(=O)N1CCN(c2nc(=O)n(-c3c(C)ccnc3C(C)C)c3nc(-c4c(O)cccc4F)c(F)cc23)C(C)C1` (stereo not drawn) + CC(Nc1ccc2c(c1)OCCn1cc(N3C(=O)OCC3C(F)F)nc1-2)C(N)=O, the IC50 (second compound 0.00316 µM) was over 10000 nM, the IC50 (second compound 0.01 µM) was over 10000 nM and the IC50 (second compound 0.0316 µM) was over 10000 nM. It also gave an IC50 (second compound 0.1 µM) of under 31.6 nM, an IC50 (second compound 0.316 µM) of under 31.6 nM and an IC50 (second compound 1 µM) of under 31.6 nM. It also gave a viability, T/C [1] of 88.3%, a viability, T/C [2] of 93.5% and a viability, T/C [3] of 96.6%. The viability, T/C [4] was 103%, the viability, T/C [5] was 119% and the viability, T/C [6] was 114%. The viability, T/C [7] was 87%, the viability, T/C [8] was 81.7% and the viability, T/C [9] was 88.5%. It also gave a viability, T/C [10] of 81.7%, a viability, T/C [11] of 106% and a viability, T/C [12] of 98.8%. It also gave a viability, T/C [13] of 60.2%, a viability, T/C [14] of 63.4% and a viability, T/C [15] of 67.5%. For the same compound, the viability, T/C [16] was 67.2%, the viability, T/C [17] was 72.1% and the viability, T/C [18] was 82.3%. The viability, T/C [19] was 43.7%, the viability, T/C [20] was 47.3% and the viability, T/C [21] was 43.3%. The viability, T/C [22] was 49.1%, the viability, T/C [23] was 54.4% and the viability, T/C [24] was 48.4%. It also gave a viability, T/C [25] of 31.6%, a viability, T/C [26] of 32.8% and a viability, T/C [27] of 33.8%. For the same compound, the viability, T/C [28] was 33.4%, the viability, T/C [29] was 37.7% and the viability, T/C [30] was 33.5%. It also gave a viability, T/C [31] of 26.7%, a viability, T/C [32] of 27.5% and a viability, T/C [33] of 29.5%. It also gave a viability, T/C [34] of 26.7%, a viability, T/C [35] of 30% and a viability, T/C [36] of 27.2%.

In the case of `CCN1CCN(Cc2ccc(Nc3ncc(F)c(-c4cc(F)c5nc(C)n(C(C)C)c5c4)n3)nc2)CC1` + CC(Nc1ccc2c(c1)OCCn1cc(N3C(=O)OCC3C(F)F)nc1-2)C(N)=O, the IC50 (second compound 0.00316 µM) is reported as over 1000 nM, the IC50 (second compound 0.01 µM) is reported as 830 nM and the IC50 (second compound 0.0316 µM) is reported as 10.4 nM. For the same compound, the IC50 (second compound 0.1 µM) was under 3.16 nM, the IC50 (second compound 0.316 µM) was under 3.16 nM and the IC50 (second compound 1 µM) was under 3.16 nM. The viability, T/C (second compound 0.00316 µM, first compound 0.00316 µM) was 79%, the viability, T/C (second compound 0.00316 µM, first compound 0.01 µM) was 79.8% and the viability, T/C [1] was 72.7%. It also gave a viability, T/C [2] of 58.5%, a viability, T/C [3] of 59.4% and a viability, T/C [4] of 62.3%. The viability, T/C (second compound 0.01 µM, first compound 0.00316 µM) was 79.8%, the viability, T/C (second compound 0.01 µM, first compound 0.01 µM) was 77.3% and the viability, T/C [7] was 60.7%. For the same compound, the viability, T/C [8] was 62.6%, the viability, T/C [9] was 55.4% and the viability, T/C [10] was 48.1%. It also gave a viability, T/C (second compound 0.0316 µM, first compound 0.00316 µM) of 55%, a viability, T/C (second compound 0.0316 µM, first compound 0.01 µM) of 54.6% and a viability, T/C [13] of 45.9%. It also gave a viability, T/C [14] of 37.7%, a viability, T/C [15] of 40.4% and a viability, T/C [16] of 43.4%. The viability, T/C (second compound 0.1 µM, first compound 0.00316 µM) was 44.7%, the viability, T/C (second compound 0.1 µM, first compound 0.01 µM) was 38.1% and the viability, T/C [19] was 34.6%. It also gave a viability, T/C [20] of 30.5%, a viability, T/C [21] of 32.5% and a viability, T/C [22] of 32.3%. The viability, T/C (second compound 0.316 µM, first compound 0.00316 µM) was 33.4%, the viability, T/C (second compound 0.316 µM, first compound 0.01 µM) was 29.6% and the viability, T/C [25] was 26.4%. The viability, T/C [26] was 22%, the viability, T/C [27] was 23.9% and the viability, T/C [28] was 23.1%. The viability, T/C (second compound 1 µM, first compound 0.00316 µM) was 29.3%, the viability, T/C (second compound 1 µM, first compound 0.01 µM) was 26.8% and the viability, T/C [31] was 22.8%. The viability, T/C [32] was 18.2%, the viability, T/C [33] was 20.4% and the viability, T/C [34] was 21.1%.

With `Cn1ncc(Cl)c1-c1cc(C(=O)NC(CN)Cc2cccc(F)c2)sc1Cl` (stereo not drawn) + CC(Nc1ccc2c(c1)OCCn1cc(N3C(=O)OCC3C(F)F)nc1-2)C(N)=O the IC50 (second compound 0.00316 µM) was 82.7 nM, the IC50 (second compound 0.01 µM) was 83 nM and the IC50 (second compound 0.0316 µM) was 33.1 nM. It also gave an IC50 (second compound 0.1 µM) of under 31.6 nM, an IC50 (second compound 0.316 µM) of under 31.6 nM and an IC50 (second compound 1 µM) of under 31.6 nM. It also gave a viability, T/C [1] of 75.1%, a viability, T/C [2] of 45.4% and a viability, T/C [3] of 20.1%. For the same compound, the viability, T/C [4] was 13.6%, the viability, T/C [5] was 10.8% and the viability, T/C [6] was 7.43%. For the same compound, the viability, T/C [7] was 62.8%, the viability, T/C [8] was 48.7% and the viability, T/C [9] was 21.5%. For the same compound, the viability, T/C [10] was 14.8%, the viability, T/C [11] was 8.36% and the viability, T/C [12] was 5.21%. The viability, T/C [13] was 50.1%, the viability, T/C [14] was 39.8% and the viability, T/C [15] was 21%. For the same compound, the viability, T/C [16] was 12%, the viability, T/C [17] was 7.58% and the viability, T/C [18] was 3.65%. It also gave a viability, T/C [19] of 41%, a viability, T/C [20] of 32.6% and a viability, T/C [21] of 19.7%. The viability, T/C [22] was 11.2%, the viability, T/C [23] was 6.59% and the viability, T/C [24] was 3.25%. For the same compound, the viability, T/C [25] was 32.3%, the viability, T/C [26] was 25.9% and the viability, T/C [27] was 15.7%. It also gave a viability, T/C [28] of 11.2%, a viability, T/C [29] of 5.81% and a viability, T/C [30] of 2.34%. It also gave a viability, T/C [31] of 24%, a viability, T/C [32] of 23.5% and a viability, T/C [33] of 13.6%. The viability, T/C [34] was 9.98%, the viability, T/C [35] was 6.08% and the viability, T/C [36] was 2.69%.

`Cn1nccc1Nc1nccc(-c2ccn(C(CO)c3ccc(Cl)c(F)c3)c(=O)c2)n1` (stereo not drawn) + CC(Nc1ccc2c(c1)OCCn1cc(N3C(=O)OCC3C(F)F)nc1-2)C(N)=O was tested, and the IC50 (second compound 0.00316 µM) was over 10000 nM, the IC50 (second compound 0.01 µM) was 4670 nM and the IC50 (second compound 0.0316 µM) was 601 nM. The IC50 (second compound 0.1 µM) was under 31.6 nM, the IC50 (second compound 0.316 µM) was under 31.6 nM and the IC50 (second compound 1 µM) was under 31.6 nM. The viability, T/C [1] was 93%, the viability, T/C [2] was 75.4% and the viability, T/C [3] was 63.5%. The viability, T/C [4] was 64.3%, the viability, T/C [5] was 55.9% and the viability, T/C [6] was 49.4%. For the same compound, the viability, T/C [7] was 74.5%, the viability, T/C [8] was 72.6% and the viability, T/C [9] was 70.2%. For the same compound, the viability, T/C [10] was 58.9%, the viability, T/C [11] was 58.7% and the viability, T/C [12] was 39.6%. It also gave a viability, T/C [13] of 65.2%, a viability, T/C [14] of 57.5% and a viability, T/C [15] of 52%. It also gave a viability, T/C [16] of 47.3%, a viability, T/C [17] of 43.9% and a viability, T/C [18] of 31.8%. It also gave a viability, T/C [19] of 44.6%, a viability, T/C [20] of 39.5% and a viability, T/C [21] of 34.8%. It also gave a viability, T/C [22] of 32%, a viability, T/C [23] of 33.5% and a viability, T/C [24] of 23.6%. The viability, T/C [25] was 35.5%, the viability, T/C [26] was 34.4% and the viability, T/C [27] was 30%. The viability, T/C [28] was 31%, the viability, T/C [29] was 27.9% and the viability, T/C [30] was 20%. The viability, T/C [31] was 25.7%, the viability, T/C [32] was 27.5% and the viability, T/C [33] was 23%. It also gave a viability, T/C [34] of 27%, a viability, T/C [35] of 25.1% and a viability, T/C [36] of 19.1%.
